Assays:
Assay type in all cases: physicochemical
[1] = Maximum solubility of the Compound; conditions: at 5° C.
Method: A preferred presentation of the composition aspects of the invention comprises the Compound at a concentration of 10 mgA/mL. This concentration is near the maximum solubility of the Compound (about 12 mgA/mL at 5° C.). The preferred solution of the composition is 10 mM lactate buffer. However, those skilled in the art will appreciate that buffer solutions of other anions may be used, including, but not limited to, buffer solutions of the anions acetate, citrate, tartrate and formate.

[2] = pH shift of aqueous formulations (water only; terminal sterilization of lactate buffered formulation)
From the text: Aqueous solutions of the Compound are susceptible to pH shift. […] When the Compound is formulated with only water, the pH of the formulation increases above 5. This pH shift results in conditions favorable to the oxidative degradation reaction, thus accelerating the degradation of the aqueous formulation. The increase in pH also decreases the solubility of the compound, thereby increasing the possibility of precipitation out of solution. Vials are preferably sterilized by terminal sterilization methods employing an autoclave. Preferably, sterilization is for 8 minutes at 121° C. Sterilization may cause a slight shift of pH. In the lactate buffered formulation, pH shifted slightly down. In order to achieve a mid-point in the preferred pH range, the initial pH is preferably set to 4.5. The terminal sterilization cycle reduces the pH to about 4.2. The pH of the initial formulation is set at pH 4.5 to accommodate the slight pH down-shifting upon terminal sterilization. […] Sodium hydroxide and hydrochloric acid are used as needed to adjust the solution to the desired pH.

[3] = pH of buffered 10 mgA/ml formulations of the Compound at 70° C.
From the text: Table 2 exemplifies the use of various buffers to stabilize the pH of formulations containing 10 mgA/ml of the Compound. [table]

maximum solubility [1]: about 12 mgA/mL
pH of the formulation ([2]; Compound formulated with only water): above 5
pH after terminal sterilization cycle ([2]; lactate buffered formulation, initial pH 4.5, autoclave 8 minutes at 121° C.): about 4.2
pH at 70° C. ([3]; 3 mM lactate, 2 days): 4.21
pH at 70° C. ([3]; 3 mM lactate, 7 days): 4.20
pH at 70° C. ([3]; 3 mM lactate, 21 days): 4.14
pH at 70° C. ([3]; 3 mM lactate, Initial (post-TS)): 4.24
pH at 70° C. ([3]; 10 mM acetate, 4 days): 4.14
pH at 70° C. ([3]; 10 mM acetate, 7 days): 4.14
pH at 70° C. ([3]; 10 mM acetate, 21 days): 4.17
pH at 70° C. ([3]; 10 mM acetate, Initial (post-TS)): 4.16
pH at 70° C. ([3]; 10 mM benzoate, 4 days): 4.16
pH at 70° C. ([3]; 10 mM benzoate, 7 days): 4.20
pH at 70° C. ([3]; 10 mM benzoate, Initial (post-TS)): 4.21
pH at 70° C. ([3]; 10 mM citrate, 2 days): 4.16
pH at 70° C. ([3]; 10 mM citrate, 7 days): 4.17
pH at 70° C. ([3]; 10 mM citrate, 21 days): 4.11
pH at 70° C. ([3]; 10 mM citrate, Initial (post-TS)): 4.16
pH at 70° C. ([3]; 10 mM formate, 2 days): 4.18
pH at 70° C. ([3]; 10 mM formate, 7 days): 4.16
pH at 70° C. ([3]; 10 mM formate, 21 days): 4.13
pH at 70° C. ([3]; 10 mM formate, Initial (post-TS)): 4.17
pH at 70° C. ([3]; 10 mM tartrate, 2 days): 4.17
pH at 70° C. ([3]; 10 mM tartrate, 7 days): 4.17
pH at 70° C. ([3]; 10 mM tartrate, 21 days): 4.07
pH at 70° C. ([3]; 10 mM tartrate, Initial (post-TS)): 4.15
Structure (SMILES): C[C@@H]([C@@H](O)c1ccc(O)cc1)N1CCC(O)(c2ccccc2)CC1 [Compound, (1S,2S)-1-(4-Hydroxyphenyl)-2-(4-hydroxy4-phenylpiperidin-1-yl)-1-propanol]

— patent US20040039022A1, “NMDA receptor agonist pharmaceutical compositions” (Pfizer Inc., priority 2000, published 2004)
